From US12390437B2, “Itaconic acid derivatives and uses thereof intreating an inflammatory disease or a disease associated with an undesirable immune response” (Sitryx Therapeutics Limited, priority 2019, dated 2025)

Test: Mouse pharmacokinetic study, oral administration
Format: in vivo
Settings: male, C57BL/6, po; mouse plasma, Example 112 dosed orally at 100 mg/kg (Intermediate 8 = metabolite), time 2 h; read-out: Example 112 and Intermediate 8 concentrations following oral administration
How it was run: (§1)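 Male C57BL/6 mice (6-8 weeks, fed ad libitum) received 10 mg/kg IV by tail vein in 10% DMSO/HP-β-CD vehicle, or 100 mg/kg by oral gavage in DMSO/HPMC/Tween 80. Facial-vein blood was taken at 9 time points (N=3 each) into K2EDTA; plasma concentrations were measured by LC-MS/MS.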

concentration at 2 h | SMILES
14000 ng/mL | C=C(CC(=O)O[C@H](C)CCCCCC)C(=O)OCC(=O)O [Example 112, (R)-2-((2-methylene-4-(octan-2-yloxy)-4-oxobutanoyl)oxy)acetic acid]

Same assay, conditions: male, C57BL/6, po; mouse plasma, Example 112 dosed orally at 100 mg/kg (Intermediate 8 = metabolite), time 4 h; read-out: Example 112 and Intermediate 8 concentrations following oral administration

concentration at 4 h | SMILES
4880 ng/mL | C=C(CC(=O)O[C@H](C)CCCCCC)C(=O)OCC(=O)O [Example 112, (R)-2-((2-methylene-4-(octan-2-yloxy)-4-oxobutanoyl)oxy)acetic acid]

Same assay, conditions: male, C57BL/6, po; mouse plasma, Example 112 dosed orally at 100 mg/kg (Intermediate 8 = metabolite), time 6 h; read-out: Example 112 and Intermediate 8 concentrations following oral administration

concentration at 6 h | SMILES
4020 ng/mL | C=C(CC(=O)O[C@H](C)CCCCCC)C(=O)OCC(=O)O [Example 112, (R)-2-((2-methylene-4-(octan-2-yloxy)-4-oxobutanoyl)oxy)acetic acid]

Same assay, conditions: male, C57BL/6, po; mouse plasma, Example 112 dosed orally at 100 mg/kg (Intermediate 8 = metabolite), time 8 h; read-out: Example 112 and Intermediate 8 concentrations following oral administration

concentration at 8 h | SMILES
867 ng/mL | C=C(CC(=O)O[C@H](C)CCCCCC)C(=O)OCC(=O)O [Example 112, (R)-2-((2-methylene-4-(octan-2-yloxy)-4-oxobutanoyl)oxy)acetic acid]

Same assay, conditions: male, C57BL/6, po; mouse plasma, Example 112 dosed orally at 100 mg/kg (Intermediate 8 = metabolite), time 24 h; read-out: Example 112 and Intermediate 8 concentrations following oral administration

concentration at 24 h | SMILES
< 8 ng/mL | C=C(CC(=O)O[C@H](C)CCCCCC)C(=O)OCC(=O)O [Example 112, (R)-2-((2-methylene-4-(octan-2-yloxy)-4-oxobutanoyl)oxy)acetic acid]

Same assay, conditions: mouse pharmacokinetic study, oral

SMILES | Metabolism in vivo
C=C(CC(=O)O[C@H](C)CCCCCC)C(=O)OCC(=O)O [Example 112, (R)-2-((2-methylene-4-(octan-2-yloxy)-4-oxobutanoyl)oxy)acetic acid] | undergoes hydrolysis in vivo to form Intermediate 8

Test: Mouse pharmacokinetic study, intravenous dosing
Format: in vivo
Settings: male, C57BL/6, mouse, iv; plasma, 10 mg/kg i.v., time 0.05 h; read-out: Parent compound concentration following intravenous administration
How it was run: as §1

concentration at 0.05 h | SMILES
63500 ng/mL | C=C(CC(=O)O[C@H](C)CCCCCC)C(=O)OCC(=O)O [Example 112, (R)-2-((2-methylene-4-(octan-2-yloxy)-4-oxobutanoyl)oxy)acetic acid]

Same assay, conditions: male, C57BL/6, mouse, iv; plasma, 10 mg/kg i.v., time 0.133 h; read-out: Parent compound concentration following intravenous administration

concentration at 0.133 h | SMILES
40100 ng/mL | C=C(CC(=O)O[C@H](C)CCCCCC)C(=O)OCC(=O)O [Example 112, (R)-2-((2-methylene-4-(octan-2-yloxy)-4-oxobutanoyl)oxy)acetic acid]

Same assay, conditions: male, C57BL/6, mouse, iv; plasma, 10 mg/kg i.v., time 0.25 h; read-out: Parent compound concentration following intravenous administration

concentration at 0.25 h | SMILES
36200 ng/mL | C=C(CC(=O)O[C@H](C)CCCCCC)C(=O)OCC(=O)O [Example 112, (R)-2-((2-methylene-4-(octan-2-yloxy)-4-oxobutanoyl)oxy)acetic acid]

Same assay, conditions: male, C57BL/6, mouse, iv; plasma, 10 mg/kg i.v., time 0.5 h; read-out: Parent compound concentration following intravenous administration

concentration at 0.5 h | SMILES
23500 ng/mL | C=C(CC(=O)O[C@H](C)CCCCCC)C(=O)OCC(=O)O [Example 112, (R)-2-((2-methylene-4-(octan-2-yloxy)-4-oxobutanoyl)oxy)acetic acid]

Same assay, conditions: male, C57BL/6, mouse, iv; plasma, 10 mg/kg i.v., time 1 h; read-out: Parent compound concentration following intravenous administration

concentration at 1 h | SMILES
13000 ng/mL | C=C(CC(=O)O[C@H](C)CCCCCC)C(=O)OCC(=O)O [Example 112, (R)-2-((2-methylene-4-(octan-2-yloxy)-4-oxobutanoyl)oxy)acetic acid]

Same assay, conditions: male, C57BL/6, mouse, iv; plasma, 10 mg/kg i.v., time 2 h; read-out: Parent compound concentration following intravenous administration

concentration at 2 h | SMILES
3540 ng/mL | C=C(CC(=O)O[C@H](C)CCCCCC)C(=O)OCC(=O)O [Example 112, (R)-2-((2-methylene-4-(octan-2-yloxy)-4-oxobutanoyl)oxy)acetic acid]

Same assay, conditions: male, C57BL/6, mouse, iv; plasma, 10 mg/kg i.v., time 4 h; read-out: Parent compound concentration following intravenous administration

concentration at 4 h | SMILES
1510 ng/mL | C=C(CC(=O)O[C@H](C)CCCCCC)C(=O)OCC(=O)O [Example 112, (R)-2-((2-methylene-4-(octan-2-yloxy)-4-oxobutanoyl)oxy)acetic acid]

Same assay, conditions: male, C57BL/6, mouse, iv; plasma, 10 mg/kg i.v., time 6 h; read-out: Parent compound concentration following intravenous administration

concentration at 6 h | SMILES
424 ng/mL | C=C(CC(=O)O[C@H](C)CCCCCC)C(=O)OCC(=O)O [Example 112, (R)-2-((2-methylene-4-(octan-2-yloxy)-4-oxobutanoyl)oxy)acetic acid]

Same assay, conditions: male, C57BL/6, mouse, iv; plasma, 10 mg/kg i.v., time 8 h; read-out: Parent compound concentration following intravenous administration

concentration at 8 h | SMILES
154 ng/mL | C=C(CC(=O)O[C@H](C)CCCCCC)C(=O)OCC(=O)O [Example 112, (R)-2-((2-methylene-4-(octan-2-yloxy)-4-oxobutanoyl)oxy)acetic acid]
